Here are results for five molecules from patent US4868299A, “Antibacterially active pyrido-benzothiazine derivatives with long-term action” (Mediolanum Farmaceutici Srl, priority 1986, dated 1989).

Data set [1] in a line: plasma and tissue concentrations after oral administration to the rat (HPLC). Format: in vivo. As to the method: The compound (X) was administered orally at a dose of 50 mg/kg to the rat after which the plasma, tissue and urine concentrations were evaluated by the HPLC method, as described hereinafter.
The plasma and tissues (heart, kidney and liver) were withdrawn from groups of 3 female rats at various times after oral administration.
The HPLC determination was made by the following procedure: 2 mg of N-dimethyldiarepam (internal standard), 1 ml of citrate buffer (0.1 M, pH 6.2) and 6 ml of chloroform are added to 1 ml of plasma or to 1 ml of supernatant obtained after centrifuging a homogenized tissue in 3 volumes of physiological solution at 2000 r.p.m. for 5 minutes.
After agitating for 20 minutes and centrifuging at 3000 r.p.m. for 5 minutes, the organic phase is separated and dried over a water bath at 70° C.
The residue is collected in 50 μl of methanol, and 20 μl of the solution are injected into a HPLC (Gilson) column under the following conditions: column μ Bondopak C-18 ([…], wavelength 245 nm), flow: 0.7 ml/min, mobile phase: (A) 0.1% acetic acid and (B) methanol, gradient: […]

In data set [2] the test system is Pseudomonas 19. Briefly: in-vitro antibacterial activity, MIC by agar dilution (multipoint inoculator). As to conditions: for MIC: read-out: Minimum Inhibiting Concentration (MIC). The format is cell-based. On the procedure:
(§1) The antibacterial activity of the compounds according to the invention was determined "in vitro" on pathogenic strains of recent clinical isolation by testing agar dilutions using a multipoint inoculator (Denley Techn. Ltd., England).
(§2) The culture medium used is isosensitest agar (Oxoid), in a quantity of 20 ml in a Petri capsule. The compounds to be tested were dissolved at various dilutions and incorporated in agar.
(§3) The bacterial inoculum, originating from an overnight broth and containing 10^5 colony-forming units per point, was inoculated by a multipoint inoculator. The bacterial growth was evaluated after 18 hours of incubation at 37° C.
(§4) For comparison purposes, the results relative to compound (XIII) and to nalidixic acid are also reported.
On the technique in general: In agar dilution, organisms are placed on agar that contains the substance at set levels.

For data set [3], the system named is Proteus 966. Described as above. The format is cell-based. As to conditions: for MIC: read-out: Minimum Inhibiting Concentration (MIC). As to the method:
as §1, §2, §3, §4

Data set [4] relates to Klebsiella 4. The data set is described as above. The format is cell-based. As to conditions: for MIC: read-out: Minimum Inhibiting Concentration (MIC). As to the method:
as §1, §2, §3, §4

The subject of data set [5] is Citrobacter 118. The data set is described as above. The format is cell-based. As to conditions: for MIC: read-out: Minimum Inhibiting Concentration (MIC). On the procedure: as §1, §2, §3, §4
The subject of data set [6] is Enterobacter 2653. The description is as above. Conditions: for MIC: read-out: Minimum Inhibiting Concentration (MIC). Format: cell-based. On the procedure:
as §1, §2, §3, §4

Data set [7] concerns Escherichia 963. The data set is described as above. Format: cell-based. Conditions: for MIC: read-out: Minimum Inhibiting Concentration (MIC). As to the method: as §1, §2, §3, §4
In data set [8] the test system is Citrobacter 120. Described as above. The format is cell-based. As to conditions: for MIC: read-out: Minimum Inhibiting Concentration (MIC). As to the method:
as §1, §2, §3, §4

In data set [9] the test system is Enterobacter 041. The data set is described as above. As to conditions: for MIC: read-out: Minimum Inhibiting Concentration (MIC). Format: cell-based. On the procedure:
as §1, §2, §3, §4

Data set [10] has as its system Staphylococcus 7. The description is as above. The format is cell-based. Conditions: for MIC: read-out: Minimum Inhibiting Concentration (MIC). On the procedure:
as §1, §2, §3, §4

For data set [11], the system named is Escherichia 15. Described as above. The format is cell-based. Conditions: 18 hours at 37° C, read-out: Minimum Inhibiting Concentration (MIC). As to the method: as §1, §2, §3, §4
Data set [12] concerns Serratia 10. Described as above. The format is cell-based. Conditions: 18 hours at 37° C, read-out: Minimum Inhibiting Concentration (MIC). As to the method: as §1, §2, §3, §4
Data set [13] concerns Serratia 9. The description is as above. The format is cell-based. Conditions: for MIC: read-out: Minimum Inhibiting Concentration (MIC). As to the method: as §1, §2, §3, §4
The subject of data set [14] is Staphylococcus 29. Described as above. Format: cell-based. Conditions: for MIC: read-out: Minimum Inhibiting Concentration (MIC). As to the method:
as §1, §2, §3, §4

The test system of data set [15] is Proteus 25. The description is as above. The format is cell-based. Conditions: for MIC: read-out: Minimum Inhibiting Concentration (MIC). As to the method:
as §1, §2, §3, §4

Data set [16] deals with Pseudomonas 22437. The description is as above. The format is cell-based. Conditions: 18 hours at 37° C; for MIC: read-out: Minimum Inhibiting Concentration (MIC). As to the method: as §1, §2, §3, §4
Setting [17] is: Pseudomonas 19, 18 hours at 37° C.
[18] abbreviates: Klebsiella 4, 18 hours at 37° C.
Where [19] appears, read: Citrobacter 118, 18 hours at 37° C.
Where [20] appears, read: Enterobacter 2653, 18 hours at 37° C.
The mark [21] stands for this setting: Escherichia 963, 18 hours at 37° C.
Setting [22] is: Citrobacter 120, 18 hours at 37° C.
The mark [23] stands for this setting: Enterobacter 041, 18 hours at 37° C.
[24] abbreviates: Staphylococcus 7, 18 hours at 37° C.
Setting [25] is: Staphylococcus 29, 18 hours at 37° C.

In brackets after ≈: the same amount, converted by molar mass. Read-outs that look alike come from different tables or passages of the source. Where only a bound is given, the exact number is not on record here.

As to `CC1Cn2cc(C(=O)O)c(=O)c3cc(F)c(N4CCNCC4)c(c32)S1` (centres unmarked) [(XI), 9-fluoro-10[N-piperazinyl]-2-methyl-7-oxo-2,3-dihydro-7H-pyrido[1,2,3-de][1,4]benzothiazine-6-carboxylic acid], the “results of the tests operating in accordance with the described procedures, in words” value in data set [1] (rat, in vivo) is “analogous to the tests carried out with compound (X)”.
As for `CC1Cn2cc(C(=O)O)c(=O)c3cc(F)c(N4CCCC4)c(c32)S1` (centres unmarked) [(XII), 9-fluoro-10[N-pyrrolidine]-2-methyl-7-oxo-2,3-dihydro-7H-pyrido[1,2,3-de][1,4]benzothiazine-6-carboxylic acid], the MIC in data set [2] (setting [17]) worked out at 2 mg/L (≈ 5.74 µM); in data set [3] (Proteus 966, 18 hours at 37° C), 2 mg/L (≈ 5.74 µM); in data set [4] (setting [18]), 2 mg/L (≈ 5.74 µM); in [5] (setting [19]), 16 mg/L (≈ 45.9 µM); in data set [6] (setting [20]), 16 mg/L (≈ 45.9 µM); in [7] (setting [21]), 16 mg/L (≈ 45.9 µM). In addition, the MIC in data set [8] (setting [22]) was found to be 2 mg/L (≈ 5.74 µM); in data set [9] (setting [23]), 2 mg/L (≈ 5.74 µM); in data set [10] (setting [24]), 0.25 mg/L (≈ 0.718 µM); in data set [11], 2 mg/L (≈ 5.74 µM); in [12], 2 mg/L (≈ 5.74 µM); in [13] (Serratia 9, 18 hours at 37° C) it was 16 mg/L (≈ 45.9 µM). Besides, the MIC is 0.25 mg/L (≈ 0.718 µM) in [14] (setting [25]); 2 mg/L (≈ 5.74 µM) in data set [15] (Proteus 25, 18 hours at 37° C); 16 mg/L (≈ 45.9 µM) in [16]. Moreover, the “results of the tests operating in accordance with the described procedures, in words” value in data set [1] (compared with compound (X)) is reported as “analogous to the tests carried out with compound (X)”.
`CCn1cc(C(=O)O)c(=O)c2ccc(C)nc21` [NALIDIXIC ACID, nalidixic acid, reference compound]: the MIC in data set [2] (Pseudomonas, 19, 18 h) was more than 25 mg/L; in [3] (18 h), more than 25 mg/L; in data set [4] (Klebsiella, 4, 18 h) it was 3.12 mg/L (≈ 13.4 µM); in data set [5] (Citrobacter, 118, 18 h), 12.5 mg/L (≈ 53.8 µM); in [6] (Enterobacter, 2653, 18 h) it was 1.56 mg/L (≈ 6.72 µM); in data set [7] (Escherichia, 963, 18 h), more than 25 mg/L. For the same molecule, the MIC in data set [8] (Citrobacter, 120, 18 h) was 12.5 mg/L (≈ 53.8 µM); in [9] (Enterobacter, 041, 18 h) it was 3.12 mg/L (≈ 13.4 µM); in [10] (Staphylococcus, 7, 18 h) it was more than 25 mg/L; in [11], 3.12 mg/L (≈ 13.4 µM); in data set [13] (Serratia, 9, 18 h) it was more than 25 mg/L; in data set [14] (Staphylococcus, 29, 18 h), more than 25 mg/L. In addition, the figures for the MIC in data set [15] (18 h) and in [16] were 12.5 mg/L (≈ 53.8 µM) and more than 25 mg/L, respectively.
With `CC1Cn2cc(C(=O)O)c(=O)c3cc(F)c(Cl)c(c32)S1` (centres unmarked) [reference compound], the MIC in data set [2] (setting [17]) is more than 32 mg/L; in data set [3] (Proteus 966, 18 hours at 37° C), more than 32 mg/L; in data set [4] (setting [18]) it was 0.12 mg/L (≈ 0.382 µM); in data set [5] (setting [19]) it was 1 mg/L (≈ 3.19 µM); in data set [6] (setting [20]), 0.12 mg/L (≈ 0.382 µM); in data set [7] (setting [21]), 16 mg/L (≈ 51 µM). The MIC in data set [8] (setting [22]) was more than 32 mg/L; in data set [9] (setting [23]), 0.12 mg/L (≈ 0.382 µM); in data set [10] (setting [24]) it was 0.12 mg/L (≈ 0.382 µM); in [11] it was 0.25 mg/L (≈ 0.797 µM); in data set [12] it was 0.25 mg/L (≈ 0.797 µM); in data set [13] (Serratia 9, 18 hours at 37° C), more than 32 mg/L. Besides, the MIC in data set [14] (setting [25]) was 0.12 mg/L (≈ 0.382 µM); in data set [15] (Proteus 25, 18 hours at 37° C), more than 32 mg/L; in [16] it was more than 32 mg/L.
“ethyl 9-fluoro-10-chloro-2-methyl-7-oxo-2,3-dihydro-7H-pyrido[1,2,3-de][1,4]benzothiazine-1-sulphoxide-6-carboxylate [(II)]”: the “Minimum Inhibiting Concentration (MIC)” value in data set [2] (setting [17]) was determined as 16 mg/L; in data set [3] (Proteus 966, 18 hours at 37° C), 4 mg/L; in [4] (setting [18]) it was 0.25 mg/L; in [5] (setting [19]), 0.5 mg/L; in data set [6] (setting [20]), 0.25 mg/L; in data set [7] (setting [21]), 2 mg/L. Further, the “Minimum Inhibiting Concentration (MIC)” value in [8] (setting [22]) was determined as 0.5 mg/L; in data set [9] (setting [23]) it was 0.12 mg/L; in data set [10] (setting [24]) it was 1 mg/L; in data set [13] (Serratia 9, 18 hours at 37° C), 8 mg/L; in data set [14] (setting [25]), 1 mg/L; in data set [15] (Proteus 25, 18 hours at 37° C), 4 mg/L. The “Minimum Inhibiting Concentration (MIC)” value in [16] is 16 mg/L.
